IC50 and Kd data for 5 compounds are collected here from BindingDB's records for doi:10.1016/j.chembiol.2016.11.013 (Peking University, 2017).

The structures appear in SMILES notation.

In assay [1] the target is T1, D-3-phosphoglycerate dehydrogenase (Homo sapiens, UniProt O43175).
T1 sequence (O43175 whole entry): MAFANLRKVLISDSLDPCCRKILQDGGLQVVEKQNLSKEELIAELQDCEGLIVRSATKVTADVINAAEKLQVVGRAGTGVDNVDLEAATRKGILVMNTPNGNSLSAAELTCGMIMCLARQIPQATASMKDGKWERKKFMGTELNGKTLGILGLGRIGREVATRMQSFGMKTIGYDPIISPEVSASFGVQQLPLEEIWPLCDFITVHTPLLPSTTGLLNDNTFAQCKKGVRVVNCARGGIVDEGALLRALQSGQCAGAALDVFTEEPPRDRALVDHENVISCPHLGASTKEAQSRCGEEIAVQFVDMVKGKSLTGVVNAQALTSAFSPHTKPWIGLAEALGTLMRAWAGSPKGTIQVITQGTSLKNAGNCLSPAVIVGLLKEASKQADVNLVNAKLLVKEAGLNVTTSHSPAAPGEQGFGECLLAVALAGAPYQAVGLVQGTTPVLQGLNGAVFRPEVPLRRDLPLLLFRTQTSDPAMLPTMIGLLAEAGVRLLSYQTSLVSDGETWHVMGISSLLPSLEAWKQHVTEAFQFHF
In words: PHGDH Enzyme Assay. As to conditions: pH 7.1. How it is done: (§1) To evaluate the effects of compounds on PHGDH activity, compounds were first pre-incubated with enzyme samples in the assay buffer (25 mM HEPES, pH 7.1, 400 mM KCl, 5 μM phosphopyridoxa (PLP), 0.5 mM α-ketoglutarate, 150 μM NADH, 1 mM DTT) for 10 min at 25℃, then the reaction was started by adding L-phospho-O-serine (Pser). […] Fluorescence signals were recorded for 3 min with a kinetics mode program using on a plate reader (Synergy, Biotek).

The target in assay [2] is T1, D-3-phosphoglycerate dehydrogenase. As to the kind of experiment: PHGDH SPR Assay. As to conditions: pH 7.4. How it is done: The binding affinities of compounds towards PHGDH were assayed using the SPR-based Biacore T200 instrument (GE Healthcare). PHGDH was immobilized on a CM5 sensor chip by using standard amine-coupling at 25℃ with running buffer PBS-P (20 mM phosphate buffer, […], 0.05% surfactant P-20, pH 7.4), respectively, as described previously. A reference flow cell was activated and blocked in the absence of PHGDH. […] Regeneration was achieved by extended washing with the running buffer after each sample injection.

The target in assay [3] is T2, D-3-phosphoglycerate dehydrogenase [3-314] (Homo sapiens, UniProt O43175).
T2 construct: 3-314
T2 sequence (O43175 whole entry): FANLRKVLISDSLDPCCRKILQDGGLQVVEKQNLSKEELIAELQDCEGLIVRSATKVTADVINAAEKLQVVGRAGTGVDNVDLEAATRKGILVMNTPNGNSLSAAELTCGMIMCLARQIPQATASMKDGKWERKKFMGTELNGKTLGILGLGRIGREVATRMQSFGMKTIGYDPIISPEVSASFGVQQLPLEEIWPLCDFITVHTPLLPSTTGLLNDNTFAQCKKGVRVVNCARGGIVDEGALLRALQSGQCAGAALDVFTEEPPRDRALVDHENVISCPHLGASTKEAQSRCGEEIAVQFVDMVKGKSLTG
As to the kind of experiment: PHGDH Enzyme Assay. As to conditions: pH 7.1. How it is done:
as §1

Regarding `O=C1N[C@H]2[C@H](CS[C@H]2CCCCC(=O)OCc2cc([N+](=O)[O-])cc(/C=N/NC(=O)c3ccc(O)cc3O)c2O)N1` [PKUMDL-WQ-2101-Biotin], the IC50 (usually the concentration that inhibits the measured activity by half) in assay [1] worked out at 49.5 µM.

Consider `O=C(N/N=C/c1cc([N+](=O)[O-])ccc1O)c1ccc(O)cc1O` [PKUMDL-WQ-2101], for which the Kd – broadly, the concentration at which binding is half-saturated – in assay [2] was 0.56 µM. Also, the IC50 in assay [1] stood at 44.9 µM; in assay [3] it was 30.1 µM.

Consider `CCNC(=S)N/N=C\c1ccc(-c2ccc(C(=O)O)c(Cl)c2)o1` [PKUMDL-WQ-2201], for which the Kd in assay [2] (read-out: Kd) was found to be 66.9 µM. In assay [3], the half-inhibitory concentration (IC50) was found to be 35 µM.

As to `Cc1c(/N=N/c2cccc(C(=O)O)c2)c(O)[nH]c(=O)c1C#N` [PKUMDL-WQ-2202], the Kd in assay [2] (read-out: Kd) was determined as 29 µM. For the same compound, the half-maximal inhibitory concentration (IC50) in assay [1] is 42 µM.

As to `O=C(O)CSC1=C(SCC(=O)O)C(=O)C(SCC(=O)O)=C(SCC(=O)O)C1=O` [PKUMDL-WQ-2203], the Kd in assay [2] (read-out: Kd) is 7.22 µM. Moreover, the IC50 in assay [1] was 28.1 µM.
